Measurements as given in PubChem BioAssay (NCI).
Where “and” joins values, the source holds several entries; their conditions need not be identical. Equal values may be shown once.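 Assay format: 96-well plates, 48-hour exposure. At the GI50, growth is halved. At the TGI there is no net growth.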

Experiments:
Test in all cases: inhibition of tumour cell growth, NCI panel, 48 h
OVCAR-5 ovarian = system: OVCAR-5 ovarian
786-0 renal = system: 786-0 renal
LOX IMVI melanoma = system: LOX IMVI melanoma
HOP-18 NSCLC = system: HOP-18 NSCLC
CAKI-1 renal = system: CAKI-1 renal
A498 renal = system: A498 renal
RPMI-8226 leukemia = system: RPMI-8226 leukemia
DMS 273 small cell lung = system: DMS 273 small cell lung
NCI-H226 lung = system: NCI-H226 lung
HS 578T breast = system: HS 578T breast

SMILES	TGI (OVCAR-5 ovarian)	TGI (786-0 renal)	TGI (LOX IMVI melanoma)	TGI (HOP-18 NSCLC)	TGI (CAKI-1 renal)	TGI (A498 renal)	TGI (RPMI-8226 leukemia)	TGI (DMS 273 small cell lung)	TGI (NCI-H226 lung)	GI50 (CAKI-1 renal)	GI50 (OVCAR-5 ovarian)	GI50 (786-0 renal)	GI50 (LOX IMVI melanoma)	GI50 (HOP-18 NSCLC)	GI50 (A498 renal)	GI50 (RPMI-8226 leukemia)	GI50 (DMS 273 small cell lung)	GI50 (NCI-H226 lung)	GI50 (HS 578T breast)	TGI (HS 578T breast)
COC1CC(OC)C(O)C(CO)O1 (stereo not drawn)	> 100 µM	> 100 µM	> 100 µM	> 100 µM	–	–	–	–	–	–	–	–	–	–	–	–	–	–	–	–
C#Cc1cc(CN(CC(=O)OC(C)(C)C)CC(=O)OC(C)(C)C)nc(CN(CC(=O)OC(C)(C)C)CC(=O)OC(C)(C)C)c1	> 100 µM	47.8 µM	6.03 µM	–	33.1 µM	76.1 µM	6.25 µM	28.6 µM	7.34 µM	–	–	–	–	–	–	–	–	–	–	–
COC(=O)[C@@]12C=CC(=O)[C@H]3C[C@@H](C(C(C)C)C1)[C@]32OC (stereo partly drawn)	> 100 µM	> 100 µM	–	> 100 µM	> 100 µM	> 100 µM	> 100 µM	> 100 µM	–	–	–	–	–	–	–	–	–	–	–	–
COC(C)(C)[C@H](O)C(O)CC(C)[C@@H]1CCC23CC12CCC1[C@@]2(C)CCC(OC(C)=O)C(C)(C)C2CC(OC2OC(COC(C)=O)C(O)C(O)C2O)[C@]13C (stereo partly drawn)	8.54 µM and 14.3 µM	15 µM and 25.2 µM	9.97 µM and 15.9 µM	19.7 µM and 13.3 µM	10.2 µM and 20.2 µM	18.7 µM and 34.7 µM	6.54 µM and 17.1 µM	10.2 µM and 23.4 µM	16.9 µM	8.27 µM	3.92 µM	11.5 µM	4.04 µM	4.15 µM	17 µM	3.77 µM	7.7 µM	–	–	–
CCOC(=O)c1cc(OC(=O)CC)c2c(OC)ccc(OC)c2c1	> 100 µM	> 100 µM	–	> 100 µM	> 100 µM	–	> 100 µM	> 100 µM	–	–	–	–	–	–	–	–	–	–	–	–
FC(F)(F)c1nc(-c2ccccc2)oc1Sc1oc(-c2ccccc2)nc1C(F)(F)F	> 100 µM	> 100 µM	> 100 µM	> 100 µM	65.7 µM	> 100 µM	> 100 µM	> 100 µM	> 100 µM	–	–	–	–	–	–	–	–	–	–	–
Cc1ccc(NC(=O)CC2C(=O)Nc3ccccc3S2=O)c(C)c1 (stereo not drawn)	> 100 µM	33.4 µM	> 87.7 µM	67.4 µM	> 48.4 µM	61.3 µM	44.8 µM	> 54.1 µM	51.6 µM	–	–	–	–	–	–	–	–	–	–	–
COc1ccc(C2C3=C(COC3=O)Oc3cc4c(cc32)OCO4)cc1 (stereo not drawn)	–	> 100 µM	> 100 µM	89.5 µM	> 100 µM	–	> 100 µM	> 100 µM	–	–	–	–	–	–	–	–	–	–	–	–
Cn1nc2ccccc2cc1=O	> 100 µM	> 100 µM	> 100 µM	> 100 µM	> 100 µM	> 100 µM	> 100 µM	> 100 µM	> 100 µM	–	–	–	–	–	–	–	–	–	–	–
CCCCCCCCCCCCC(CCCCCCCCCCCC)OP(=O)(O)O	> 100 µM	> 100 µM	> 100 µM	> 100 µM	> 100 µM	52.8 µM	> 100 µM	> 100 µM	> 100 µM	–	–	–	–	–	–	–	–	–	–	–
COC(=O)C1=C(C)N(NC(N)=O)C(C)(O)C12CCOC2=O (stereo not drawn)	> 100 µM	> 100 µM	> 100 µM	> 100 µM	> 100 µM	> 100 µM	> 100 µM	> 100 µM	> 100 µM	–	–	–	–	–	–	–	–	–	–	–
CC[CH2][Sn]([CH2]CC)([O]C(=O)Cc1ccc(F)cc1)[O][Sn]([CH2]CC)([CH2]CC)[O]C(=O)Cc1ccc(F)cc1	2.84 µM	0.361 µM	0.232 µM	0.828 µM	0.481 µM	0.469 µM	–	1.13 µM	0.813 µM	0.11 µM	1.44 µM	0.133 µM	0.0851 µM	0.25 µM	0.149 µM	0.0382 µM	0.205 µM	0.243 µM	–	–
C=C[C@H]1C=Cc2c(OC)cccc2[C@@H]1COP1(=S)NC(C)C(c2ccccc2)O1 (stereo partly drawn)	–	> 100 µM	> 100 µM	> 100 µM	–	–	> 100 µM	> 100 µM	> 100 µM	–	–	–	–	–	–	–	–	–	–	–
O=C(C=Nc1ccccc1C(=O)[O-])c1cccs1.O=C(C=Nc1ccccc1C(=O)[O-])c1cccs1.[Zn+2]	71.9 µM	> 100 µM	71.5 µM	> 100 µM	> 100 µM	> 100 µM	–	> 100 µM	–	–	–	–	–	–	–	–	–	–	–	–
c1ccc2c(c1)[nH]c1c2ncc2[nH]c3ccccc3c21	22.9 µM	5.61 µM	–	14.9 µM	13.7 µM	9.07 µM	6.27 µM	9.39 µM	49.1 µM	–	–	–	–	–	–	–	–	–	–	–
CC(C)c1cccc(C(C)C)c1NC(=O)CCC(=O)NN	> 100 µM	> 100 µM	–	> 100 µM	> 100 µM	> 100 µM	> 100 µM	> 100 µM	> 100 µM	–	–	–	–	–	–	–	–	–	–	–
Cc1ccccc1NC(=O)c1ccc([N+](=O)[O-])cc1	> 100 µM	> 100 µM	> 100 µM	> 100 µM	> 100 µM	> 100 µM	> 100 µM	> 100 µM	> 100 µM	–	–	–	–	–	–	–	–	–	–	–
COc1cc(N2CCC(N3CCN(C)CC3)CC2)ccc1Nc1ncc(Cl)c(Nc2ccccc2S(=O)(=O)C(C)C)n1	5.48 µM	2.44 µM	1.47 µM	–	6.51 µM	1.73 µM	6.46 µM	–	2.14 µM	0.65 µM	0.659 µM	1.12 µM	0.332 µM	–	0.263 µM	0.924 µM	–	0.461 µM	1.35 µM	5.07 µM
C[CH2][Sn]([CH2]C)([O]C(=O)c1ccc(F)cc1)[O][Sn]([CH2]C)([CH2]C)[O]C(=O)c1ccc(F)cc1	> 100 µM	> 100 µM	> 100 µM	> 100 µM	24.9 µM	30 µM	–	> 100 µM	87.5 µM	12.2 µM	> 100 µM	53.6 µM	37.4 µM	> 100 µM	16.4 µM	–	> 100 µM	30.8 µM	–	–
Nc1ccc(-c2ccc(-c3nc4cc(Cl)c(Cl)cc4[nH]3)cc2)cc1	> 100 µM	18.9 µM	> 25.8 µM	–	–	> 70.7 µM	38.4 µM	–	> 41.7 µM	0.353 µM	26.2 µM	2.05 µM	0.0361 µM	–	18 µM	1.85 µM	–	4.07 µM	12 µM	82.1 µM
N#CSc1ccc(S(N)(=O)=O)cc1	> 100 µM	65.2 µM	> 100 µM	–	> 100 µM	> 100 µM	61.5 µM	–	> 100 µM	–	–	–	–	–	–	–	–	–	–	> 100 µM
